Source: patent US9249115B2, “N,N1 substituted piperazines having combined antiaggregant, anticoagulant and vasodilatory activity, and method for producing same” (Vertex Closed Joint Stock Company, priority 2011, dated 2016)

Experiments:
[1] = test system: ADP-induced thrombocyte aggregation; experiment: ADP-induced thrombocyte aggregation, donor human thrombocyte enriched plasm; format: cell-based; settings: ADP inductor; for MA, %: human thrombocyte plasm; for inhibition at 1250 µM / inhibition at 2500 µM / inhibition at 5000 µM / inhibition at 200 µM / inhibition at 500 µM: Homo sapiens, read-out: (MA0-MAx): MA0 * 100%
Method: (§1) The study of antiaggregant and anticoagulant properties of N,N′-substituted piperazines on the sample of donor human blood. The blood was collected by donor ulnar vein punction with dry sharp needle without syringe. The administration of drugs that influence on thrombocyte function was cancelled in 7÷10 days before the experiment.
(§2) In graduated plastic centrifuge tube 1 ml of 3.8% basic trisodium citrate solution with pH=7.4 was placed. The ulnar vein was punctuated, the freely effluent blood was collected up to 10 ml mark, the mixture was instantly stirred to prevent air bubbles appearance. The collected and stabilized blood was split in two 5 ml portions in two tubes.
(§3) To obtain thrombocyte enriched plasm the stabilized blood was spinned at 1000 rpm (150 g) for 8 min at room temperature. The repeated spinning of the blood at 3200 rpm (2300 g) for 20 min at 22° C. yielded thrombocyte depleted plasm.
(§4) The study of anticoagulant activity was done within 2 h after thrombocyte enriched plasm obtaining. The plasm was normalized to achieve thrombocyte concentration of 200-250×10^9/L by addition of thrombocyte-free plasm. The concentration of thrombocytes was measured on SOLAR AR 2110 analyzer.
(§5) Antiaggregant properties of N,N′-substituted piperazines were evaluated by their influence on thrombocyte aggregation in tests with ADP-, collagen- and ristocetin-induced aggregation. To dissolve N,N′-substituted piperazines and to dilute reagents Tris-HCl-buffer with pH=7.4 was used.
(§6) As the general characteristic of thrombocyte aggregation activity the maximum amplitude (MA) of aggregation was taken on. That is the peak value of transmittance coefficient of the sample after aggregation agent introduction expressed in % relative to the transmittance of thrombocyte-free plasm. The response was registered on ascending linear segment of aggregation curve for 16 s.
(§7) The measurements were done using 4-channel CHRONO-LOG 490-4D analyzer (CHRONO-LOG, USA). The temperature in the cell was 37° C., the spinning speed of magnetic stirrer was 1200 rpm.
(§8) In a cuvette 0.5 ml of N,N′-substituted piperazine solution was placed, then 0.4 ml of normalized thrombocyte plasm was added. The mixture was stirred and incubated at 37° C. for 5 min. The cuvette was placed in aggregometer, then 0.05 ml of aggregation inductor solution was added (ADP or collagen or ristocetin). Thrombocyte aggregation was measured for 3 min.
ADP-induced reversible thrombocyte aggregation test utilized CHRONO-PAR ADP reagent (CHRONO-LOG, USA) with 10 mol concentration. Primary (reversible) thrombocyte aggregation was evaluated by the response on addition of ADP threshold dose (ADP concentration is 1 mol) to plasm.

[2] = test system: Collagen-induced thrombocyte aggregation; experiment: Collagen-induced thrombocyte aggregation, donor human thrombocyte enriched plasm; format: cell-based; settings: collagen inductor; for MA, %: human thrombocyte plasm; for inhibition at 500 µM / inhibition at 1250 µM / inhibition at 2500 µM / inhibition at 5000 µM: Homo sapiens, read-out: (MA0-MAx): MA0 * 100%
Method: as §1, §2, §3, §4, §5, §6, §7, §8
In collagen-induced thrombocyte aggregation test CHRONO-PAR COLLAGEN reagent (CHRONO-LOG, USA) was diluted with buffer solution until collagen concentration reached 10 µg/ml.

[3] = test system: Ristocetin-induced thrombocyte aggregation; experiment: Ristocetin-induced thrombocyte aggregation, donor human thrombocyte enriched plasm; format: cell-based; settings: ristocetin inductor; for MA (60 c), %: amplitude at 60 s
Method: as §1, §2, §3, §4, §5, §6, §7, §8
To study ristocetin-induced thrombocyte aggregation CHRONO-PAR RISTOCETIN reagent (CHRONO-LOG, USA) was diluted with buffer solution until ristocetin concentration reached 12 mg/ml. Thrombocyte aggregation amplitude was measured in 60 s after the beginning of the reaction.

[4] = test system: experimental photothrombosis; experiment: Experimental photothrombosis model, arterial blood velocity; format: in vivo, Wistar male rats
Method: The studies were done on Wistar male rats with mass of 230±30 g (laboratory animals nursery “Rappolovo”, RAMS). The animals were kept with unlimited food (standard ration for laboratory rats K-120 by <<Inform-korm>>, Russia) and water allowance. […]
Thrombosis modeling: the drugs were introduced into left femoral vein, in 50 min afterwards 1 ml of Bengal rose A photosensitizer (Acros Organics, USA) solution was introduced with dose of 17 mg/kg [Boselli 2007, Petrischev 2009]. Then the incision of internal surface of animal right thigh about 2 cm in length was made. The section of the femoral vein about 5 mm in length was released from surrounding tissues and separated from neurovascular bundle. Beneath this section of the vein the black non-transparent plastic strip 3 mm in width was laid to screen off the vein and surrounding tissues from radiation. The irradiation was done using diode laser <<DPSS-laser>> (Diode Pumped Solid State Laser, South Korea) with 532 nm wavelength and 60 mW power. The area of irradiation was 1 mm^2, exposing time was 40 min. The blood flow in femoral artery was measured by high frequency Doppler ultrasonography method (<<Minimax-Doppler-K>> apparatus, frequency of sensor was 20 MHz). The blood velocity alteration due to irradiation was measured (Table 9).

[5] = test system: thrombocyte depleted plasm coagulation; experiment: Activated partial thromboplastin time (APTT), anticoagulant properties; format: biochemical, human; settings: for APTT: thrombocyte depleted plasm
Method: as §1, §2, §3
To study anticoagulant properties of N,N′-substituted piperazines activated partial thromboplastin time (APTT) was measured. That is the ability of N,N′-substituted piperazines to increase thrombocyte depleted plasm coagulation time compared to the ability of control sample. The set of reagents for APTT determination (Russian Scientific Research Institute of Hematology and Transfusiology Ministry of Health of Russian Federation by Technical Regulation 9398-214-01966456-99) and COAG-A-MATE® XM coagulometer (ORGANON TEKNIKA, USA) were used.
The solutions of N,N′-substituted piperazines were mixed with thrombocyte depleted plasm at 1:1 ratio, then 0.1 ml of APTT reagent was added, the mixture was incubated in the cuvette for 5 min at 37° C., then 0.1 ml of 0.277% CaCl2 solution was added. The time of coagulation (in seconds) was measured.

Compound | MA, % ([1]; 1.25 mmol/L) [%] | MA, % ([1]; 2.50 mmol/L) [%] | MA, % ([1]; 5.0 mmol/L) [%] | inhibition at 1250 µM ([1]; 1.25 mmol/L) [%] | inhibition at 2500 µM ([1]; 2.50 mmol/L) [%] | inhibition at 5000 µM ([1]; 5.0 mmol/L) [%] | MA, % ([2]; 0.5 mmol/L) [%] | MA, % ([2]; 1.25 mmol/L) [%] | MA, % ([2]; 2.5 mmol/L) [%] | MA, % ([2]; 5.0 mmol/L) [%] | inhibition at 500 µM ([2]; 0.5 mmol/L) [%] | inhibition at 1250 µM ([2]; 1.25 mmol/L) [%] | inhibition at 2500 µM ([2]; 2.5 mmol/L) [%] | inhibition at 5000 µM ([2]; 5.0 mmol/L) [%] | (MAx-MA0): MA0 * 100% ([3]; 0.5 mmol/L) [%] | MA (60 c), % ([3]; 0.5 mmol/L) [%] | (MAx-MA0): MA0 * 100% (Ozagrel: (MA0-MAx): MA0 * 100%) ([3]; 1.25 mmol/L) [%] | MA (60 c), % ([3]; 1.25 mmol/L) [%] | (MAx-MA0): MA0 * 100% (Ozagrel: (MA0-MAx): MA0 * 100%) ([3]; 2.5 mmol/L) [%] | MA (60 c), % ([3]; 2.5 mmol/L) [%] | other results
COc1ccc(C(=O)N2CCN(C(=N)NC(=N)N)CC2)c(OC)c1OC.Cl [Example 2, N-carbamidoyl-4-(2,3,4-trimethoxybenzoyl)piperazine-1-carboximidamide hydrochloride] | 15.0 ± 1.8 | 8.7 ± 2.2 | 3.1 ± 0.8 | 21.1 | 55 | 84.2 | 73.0 ± 7.3 | 65.10 ± 1.8 | 58.7 ± 2.9 | 24.1 ± 0.8 | 7.9 | 17.9 | 26 | 69.6 |  |  |  |  |  |  | 
COc1ccc(CN2CCN(CC(O)CS(=O)(=O)[O-])CC2)c(OC)c1OC.[Na+] (centres unmarked) [Example 3, 3-(1-(2,3,4-trimethoxybenzyl)piperazine-4-yl)-2-hydroxy-1-propanesulfonic acid sodium salt] |  |  |  |  |  |  |  |  |  |  |  |  |  |  | 6.1 | 63.0 ± 6.1 | 7.5 | 62.1 ± 8.9 | 24.0 | 51.0 ± 7.2 | (MAx-MA0): MA0 * 100% (Ozagrel: (MA0-MAx): MA0 * 100%) ([3]; 5.0 mmol/L): 77.5%; MA (60 c), % ([3]; 5.0 mmol/L): 25.1 ± 3.2%; V, cm/s (arterial blood velocity) ([4]; 0.01 mmol/kg, 0 min of irradiation): 7.1 ± 3.2 cm/s; V, cm/s (arterial blood velocity) ([4]; 0.01 mmol/kg, 10 min of irradiation): 7.00 ± 2.4 cm/s; V, cm/s (arterial blood velocity) ([4]; 0.01 mmol/kg, 20 min of irradiation): 7.5 ± 2.2 cm/s; V, cm/s (arterial blood velocity) ([4]; 0.01 mmol/kg, 30 min of irradiation): 6.4 ± 1.9 cm/s; V, cm/s (arterial blood velocity) ([4]; 0.01 mmol/kg, 40 min of irradiation): 6.6 ± 1.5 cm/s; V, cm/s (arterial blood velocity) ([4]; 0.025 mmol/kg, 0 min of irradiation): 8.5 ± 1.7 cm/s; V, cm/s (arterial blood velocity) ([4]; 0.025 mmol/kg, 10 min of irradiation): 8.4 ± 1.2 cm/s; V, cm/s (arterial blood velocity) ([4]; 0.025 mmol/kg, 20 min of irradiation): 8.4 ± 3.0 cm/s; V, cm/s (arterial blood velocity) ([4]; 0.025 mmol/kg, 30 min of irradiation): 8.9 ± 1.6 cm/s; V, cm/s (arterial blood velocity) ([4]; 0.025 mmol/kg, 40 min of irradiation): 8.5 ± 1.2 cm/s
COc1ccc(CN2CCN(C(=N)NC(=N)N)CC2)c(OC)c1OC.Cl [Example 4, N-carbamidoyl-4-(2,3,4-trimethoxybenzyl)piperazine-1-carboximidamide hydrochloride] | 10.6 ± 2.0 | 5.7 ± 1.1 | 1.7 ± 0.5 | 42.1 | 68.9 | 90.7 |  | 59.0 ± 5.9 | 52.2 ± 7.9 | 26.2 ± 3.5 |  | 22.1 | 31 | 65.4 |  |  |  |  |  |  | 
COc1ccc(CN2CCN(C(=N)N)CC2)c(OC)c1OC.O=C(O)/C=C/C(=O)O [Example 8, 4-(2,3,4-trimethoxybenzyl)piperazine-1-carboximidamide fumarate] | 8.5 ± 2.8 | 2.5 ± 1.6 |  | 55.3 | 86.8 |  | 72.3 ± 6.3 | 63.5 ± 9.8 | 58.5 ± 9.6 | 51.3 ± 7.9 | 5.2 | 16.8 | 23.3 | 32.8 | 16.1 | 50.7 ± 8.7 | 20.5 | 48.0 ± 5.8 | 35.1 | 39.2 ± 11.6 | MA (60 c), % ([3]; 0.2 mmol/L): 60.4 ± 9.1%; (MAx-MA0): MA0 * 100% (Ozagrel: (MA0-MAx): MA0 * 100%) ([3]; 5.0 mmol/L): 44.7%; MA (60 c), % ([3]; 5.0 mmol/L): 33.4 ± 9.9%; MA, % ([1]; 0.2 mmol/L): 18.5 ± 2.8%; MA, % ([1]; 0.5 mmol/L): 14.3 ± 3.0%; inhibition at 200 µM ([1]; 0.2 mmol/L): 2.6%; inhibition at 500 µM ([1]; 0.5 mmol/L): 24.7%; (APTTx-APTT0): APTT0 * 100% ([5]; 1.7 mmol/L): 27.0%; APTT ([5]; 1.7 mmol/L): 61.1 ± 4.4 s; (APTTx-APTT0): APTT0 * 100% ([5]; 2.5 mmol/L): 56.5%; APTT ([5]; 2.5 mmol/L): 71.3 ± 5.2 s; (APTTx-APTT0): APTT0 * 100% ([5]; 4.1 mmol/L): 89.4%; APTT ([5]; 4.1 mmol/L): 91.1 ± 9.9 s; (APTTx-APTT0): APTT0 * 100% ([5]; 8.3 mmol/L): 201.5%; APTT ([5]; 8.3 mmol/L): 145.0 ± 7.3 s
COc1cc(CN2CCN(C(=N)N)CC2)ccc1OCC(C)C.Cl [Example 12, 4-(4-(2-methylpropyloxy)-3-methoxybenzyl)piperazine-1-carboximidamide hydrochloride] | 5.1 ± 2.2 | 1.7 ± 0.3 |  | 67.5 | 89.2 |  | 71.9 ± 5.1 | 63.1 ± 9.1 | 55.4 ± 9.0 | 51.0 ± 7.1 | 6.5 | 16.8 | 28 | 35 |  |  |  |  |  |  | MA, % ([1]; 0.2 mmol/L): 14.1 ± 2.0%; MA, % ([1]; 0.5 mmol/L): 11.2 ± 3.3%; inhibition at 200 µM ([1]; 0.2 mmol/L): 10.2%; inhibition at 500 µM ([1]; 0.5 mmol/L): 28.7%; (APTTx-APTT0): APTT0 * 100% ([5]; 1.7 mmol/L): 9.4%; APTT ([5]; 1.7 mmol/L): 50.1 ± 4.0 s; (APTTx-APTT0): APTT0 * 100% ([5]; 2.5 mmol/L): 38.0%; APTT ([5]; 2.5 mmol/L): 63.2 ± 5.1 s; (APTTx-APTT0): APTT0 * 100% ([5]; 4.1 mmol/L): 53.3%; APTT ([5]; 4.1 mmol/L): 70.2 ± 3.2 s; (APTTx-APTT0): APTT0 * 100% ([5]; 8.3 mmol/L): 205.7%; APTT ([5]; 8.3 mmol/L): 140.0 ± 4.7 s
